Values of other authors in patent US20050101563A1, “Method and compositions for the treatment and prevention of pain and inflammation” (Pharmacia Corporation, priority 2001, published 2005).
Each block holds one compound with its values, some of them ahead of it.

Legend:
[1] = system: patients with knee osteoarthritis; conditions: 1500 mg/day, 3 years
Cox-2 = conditions: enzyme inhibitory compounds of Ligustrum lucidum extracts
rats = conditions: orally administered; sponge implants in rats
[2] = orally administered; rats

Compound: N[C@H]1C(O)O[C@H](CO)[C@@H](O)[C@@H]1O.O=S(=O)(O)O (stereo partly drawn) [glucosamine sulfate]
joint-space loss [1]: no significant joint-space loss

Compound: C[C@H]1[C@H](C)CC[C@]2(C(=O)O)CC[C@]3(C)C(=CC[C@@H]4[C@@]5(C)CC[C@H](O)C(C)(C)[C@@H]5CC[C@]43C)[C@H]12 [ursolic acid]
selectivity for the inhibition of Cox-2 versus Cox-1 (Cox-2): not substantially more selective for the inhibition of Cox-2 than for Cox-1

Compound: CC(=O)N[C@H]1C(O)O[C@H](CO)[C@@H](O)[C@@H]1O (stereo partly drawn) [N-acetylglucosamine]
IL-1-beta-mediated activation of chondrocytes (human chondrocytes): prevent IL-1-beta-mediated activation of human chondrocytes

Compound: CC1(C)CC[C@]2(C(=O)O)CC[C@]3(C)C(=CC[C@@H]4[C@@]5(C)CC[C@H](O)C(C)(C)[C@@H]5CC[C@]43C)[C@@H]2C1 [oleanic acid]
selectivity for the inhibition of Cox-2 versus Cox-1 (Cox-2): not substantially more selective for the inhibition of Cox-2 than for Cox-1

tissue tropism [2]: tropism for cartilagineous tissues
Compound: chondroitin sulfate
granuloma formation (rats): significantly decrease granuloma formation
